# Legend:
# Chymotrypsinogen A = Chymotrypsinogen A (Bos taurus, UniProt P00766)
# Description: Compound was tested for the inhibition of chymotrypsin
# Serine protease 1 = molecular target: T1, Serine protease 1 (Bos taurus, UniProt P00760)
# T1 sequence (P00760 whole entry): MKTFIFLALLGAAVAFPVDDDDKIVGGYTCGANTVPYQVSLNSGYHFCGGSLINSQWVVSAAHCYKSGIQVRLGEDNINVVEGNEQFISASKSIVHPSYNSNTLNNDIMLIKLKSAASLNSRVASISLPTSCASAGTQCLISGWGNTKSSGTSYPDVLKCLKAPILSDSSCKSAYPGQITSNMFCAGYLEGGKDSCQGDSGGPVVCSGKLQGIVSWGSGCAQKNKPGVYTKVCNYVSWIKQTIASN
# Description: Compound was tested for the inhibition of trypsin
# Description for physchem: Dissociation constant of compound was determined
SMILES,Ki (Chymotrypsinogen A),pKa (physchem),pKa,Ki (Serine protease 1)
CB(O)c1ccccc1 [PHENYL METHYL BORINIC ACID],30 µM,8.1,–,–
OB(O)c1ccccc1 [PHENYLBORONIC ACID],–,–,8.85,10.2 mM
